Measurements published in PubChem BioAssay AID743267 (Broad Institute, 2014).

The molecules below were run on human bronchial epithelial cells, CFTR corrector, plate reader (assay: CFTR ΔF508 corrector activity in bronchial cells, dose response, human bronchial epithelial cells, plate reader, cherry-pick, two tests (AID 743267)). Settings: measured here: test 1 replicate run.

Structure (SMILES) | AC50 [µM]
COc1ccc(-c2ccc3c(c2)[C@H]2[C@H](CCN2S(=O)(=O)c2ccc(OC)cc2)[C@@H](CO)N3)cc1 | 7.37

Same assay, conditions: measured here: test 2 replicate run

Structure (SMILES) | AC50 [µM]
CCOc1ccc(C)cc1S(=O)(=O)n1cnc2ccccc21 | 8.08
COc1ccc(C2=Nn3c(nnc3-c3ccccc3OC)SC2)cc1OC1CCOC1 (centres undefined) | 0.973
COc1ccc(S(=O)(=O)Nc2cccc3ccc(O)cc23)cc1 | 6.82
O=P(Oc1ccc(-c2ccccc2)cc1)(N1CC1)N1CC1 | > 50
Cc1ccc(-c2csc(Nc3ccccn3)n2)cc1 | 26.4
CCN1CCCC(OC(=O)c2cc(-c3ccccc3Cl)nc3ccccc23)C1 (centres undefined) | 43.9
COc1nc(C)nc(NC(=O)NS(=O)(=O)c2ccccc2Cl)n1 | > 50
COc1ccc([C@H]2CC(=O)C=C(c3ccc(OC)cc3OC)C2)cc1 | 0.681
O=Nc1ccc(O)c2ncccc12 | 3.57
CCOC1=C2[C@@H](CN(S(=O)(=O)c3ccc(C)cc3)[C@H]2c2ccc(Cl)cc2)[C@H]2C(=O)N(c3ccccc3)C(=O)[C@H]2C1 | > 50
CN(C[C@H](Cc1ccccc1)N(C[C@H](Cc1ccccc1)N(CCC(C)(C)C)N=O)N=O)N=O | 47.9
COCOc1cccc(CN2CCC2(C)C(=O)Nc2ccc(C)c(O)c2)c1 (centres undefined) | > 50
N=c1sccn1CC(=O)Nc1ccc(S(N)(=O)=O)cc1 | 14.9
COc1ccc(S(=O)(=O)N2CCN(CCOc3ccccc3Cl)CC2)cc1OC | 38.7
O=C(/C=C/c1ccco1)NC(=S)Nc1nc(-c2ccc3ccccc3c2)cs1 | 3.34
CC1=NCCc2c1[nH]c1cc(O)ccc21 | 41.4
O=C1C=CN(C2OC(CO)C(O)C2O)C(=O)C1 (centres undefined) | > 50
N=C1/C(=C/c2cccn2CCOc2ccccc2)C(=O)N=C2SC=C(c3ccccc3)N12 | 10.8
NS(=O)(=O)c1ccc(NC(=O)c2cccc3cc4ccccc4nc23)cc1 | 4.75
Cc1cnc(NC(=O)CCc2ccccc2)s1 | 6.6
Cc1ccc(N2C(=O)c3cccc4c([N+](=O)[O-])ccc(c34)C2=O)c2cccnc12 | 18.8
CCOc1ccc(C(=O)N[C@H](C(=O)Nc2cccc(S(=O)(=O)N3CCCCC3)c2)C(C)C)cc1 | 46.3

Structure (SMILES) | AC50 [µM]
CN(C)CCCNc1c2ccccc2nc2ccccc12 | 0.879
COc1ccccc1NS(=O)(=O)c1cc(N=N/C(C(=O)Nc2ccc(Cl)cc2)=C(/C)O)ccc1C | 36.6
Cc1cnc(NC(=O)c2ccc3c(c2)OCCO3)s1 | 4.71
Clc1ccc(Nc2ccc3ccccc3n2)cc1 | 8.45
COc1ccc(C)cc1Nc1c2c(nc3ccccc13)CCC2 | 0.708
CCN(CC)CCn1c2ccccc2c2nc3ccccc3nc21 | 11.3
Nc1ccc2ccc3cccc[n+]3c2c1 | 21.3
COc1ccc(N2CCc3c(C)nc4c(OC)cc(OC)cc4c32)cc1 | > 50
CCOC(=O)N1CCN(C(=O)C2CCC(=O)N(CCCN3CCCC3=O)C2)CC1 (centres undefined) | 10.5
Cc1ccc(C)c(CSc2nc3[nH]ncc3c(=O)[nH]2)c1 | 2.57
O=C(OCc1ccc(Br)cc1)c1cc([N+](=O)[O-])ccc1N1CCOCC1 | 0.662
Cc1cccc2c(N=Nc3ccc(S(=O)(=O)Nc4ccc(Cl)cc4)cc3[N+](=O)[O-])c(O)[nH]c12 | > 50
c1ccc2c(c1)C1=NCCN1c1ccccc1-2 | 2.93
N#C/C(=C(/O)c1ccc(Br)s1)c1nc2ccccc2[nH]1 | 3.88
CCOc1ccc(NC(=O)c2cc(OC)nc3ccccc23)cc1 | 1.7
NS(=O)(=O)c1ccc(CCNc2nn3c(-c4cccc(OC(F)(F)F)c4)cnc3s2)cc1 | 1.99
COc1ccccc1C(=O)Nc1ccc2c(c1)nc(CCNC(=O)c1ccco1)n2C | 5.48
COc1ccc(/C(C)=N/NC(=O)c2cccc(S(=O)(=O)N3CCCC3)c2)c(O)c1 | > 50
COc1ccc(S(=O)(=O)N(C(=O)C(C)C)c2ccc3oc(=O)sc3c2)cc1 | 7.6
COc1ccc(-c2oc3ccc(-c4cc(OC)c(OC)c(OC)c4)cc3c2C#Cc2ccccn2)cc1 | 26.7
COc1ccc(OC)c(/C(C)=N\NC(=O)c2cc3cc(Cl)ccc3n2C)c1 | 8.3
